Data: patent US12263140B1, “Methods of reducing the production of greenhouse gases from animals” (AGRICULTURAL SCIENCES LIMITED, priority 2023, dated 2025)

How the values were obtained:
[1] = tested on: rumen fluid from live cows; experiment: Fermentation of dried grass with rumen fluid from fistulated cows that drank dilute vitamin K1 solution; format: in vivo, cow; details: drinking water, 100 ml of tincture to 20 litres of water
Text: The collected rumen fluid was then fermented with dried grass in the fermenter described in Example 1 and FIG. 1.

[2] = EFSA report 2013; cited from earlier work
[3] = tested on: rumen regions AD, PD, PV, AV; experiment: Natural fermentation and pH of fluid from different rumen regions; format: cell-based, cow; details: FIG. 13
Text: The different rumen regions were sampled by collecting the rumen of a slaughtered animal and making a cut with a sterile knife in a particular region and then palpating fluid samples using gloved hands from the cut. Cuts were made in the anterior dorsal region of the rumen (AD), the posterior region (PD), the posterior ventral (PV) and the anterior ventral (AV).
FIG. 13 is a graph showing the results of natural fermentation (without the addition of substrate other than the material eaten by the cow before death), according to one or more embodiments.
The pH difference between experimental, which were dosed with vitamin K1, and the controls, which were not dosed with vitamin K1, was greatest at position AD. The average pH in the control samples was 6.51 and in the experimental samples, the average pH was 6.34.

pig faeces = experiment: Fermentation of diluted pig faeces; format: cell-based; details: 1% steep fluid
Protocol: Fresh pig faeces samples were mixed with an equal volume of distilled water.
Six 50 ml fermentation tubes were used in the fermentation experiment.
The controls were […] fermentation tubes filled to the top with diluted pig faeces.
The fermentation tubes were gently agitated in a water bath held in the dark at 36° C.

cow rumen fluid = experiment: SIFT-MS analysis of gas from grass fermentations by cow rumen fluid; format: cell-based
Text: A SIFT-MS analyser was further used to confirm the above noted effects in terms of reductions in methane. A SIFT-MS device (see https://syft.com/sift-ms-technology/) is an advanced method for analysing mixtures of smaller volatile organic compounds.

methanogens = experiment: Fermentation of methyl alcohol in rumen fluid; format: cell-based, cow; details: MeOH added to rumen fluid with or without vitamin K1
Protocol: The MeOH was added in equal volumes to tubes containing rumen fluid with (E) or without (C) the addition of vitamin K1. The results are shown as symbols on the Y-axis in FIG. 13, according to one or more embodiments.

sheep = experiment: Sheep exhalant breath trial after vitamin K1 drench (Douglas Bag type apparatus, Micro GC); format: in vivo
Protocol: The sheep tested in this trial were ewe sheep. In this and all subsequent sheep trials, the sheep were yarded for 24 hours before the trial commenced, so their rumen was at least partially empty since they could not eat when yarded. In total, 60 sheep were tested in similar trials on two different sheep farms. The sheep in each trial were divided randomly into two equal groups, one group being an experimental group and the other group being a control group.
The sheep were driven into a race and each individual was drenched as they came to the end of the race. Sheep in the experimental group and control group were given a 50 ml drench prior to yard release and normal grazing and behaviour.
The sheep were let out to feed in a field and allowed to graze on grass freely. They were herded back at intervals and their exhalant breath captured. The breath exhalation of sheep was measured using the apparatus shown in FIG. 4, according to one or more embodiments, being an instrument based on Douglas Bag equipment for the sampling of exhalant breath from humans. Note that the air space in the tubes shown in FIG. 4 is exaggerated in the drawing, according to one or more embodiments. In reality, the air space may be kept to as small a volume as possible to avoid contamination of the exhalant breath with the dead air in the tubes. The gas impermeable bag used for exhalant breath capture must be as big as possible since methane is largely released periodically as a burp rather than in the exhalant breath.
The apparatus of FIG. 4 was designed specifically for use on sheep, according to one or more embodiments. On inspiration by the sheep, the valve opens and the sheep is able to breath in fresh air. On exhalation by the sheep, the valve closes and the exhaled air is directed in to the gas impermeable balloon. It is important that the balloon used is not expanded by the exhaled air, but is merely collected. Otherwise, back pressure may develop which has the potential to interfere with the breathing of the sheep. The valve could be either a flap valve or a table tennis ball. The latter was identified by the inventor as an ideal light weight valve.
The breath exhalant collected was analysed using an Agilent Micro GC with 2 dual columns: molecular sieve 5A and Plot-Q columns.
The six control sheep were drenched with 50 ml of 30% ethyl alcohol plus 50 ml water.
In this trial, the same trial was completed as in Example 3 above however, in this trial male sheep (rams) were trialed and the exhalant breath of the trial animals was tested over a time period of two days, samples taken on day 0, 1 and 2. Five rams were drenched with vitamin K1 and four rams were not drenched at all and used as controls.

CC1=C(C/C=C(\C)CCC[C@H](C)CCC[C@H](C)CCCC(C)C)C(=O)c2ccccc2C1=O [vitamin K1]
reduction in carbon dioxide production [1]: approximately 29% | reduction in methane production [1]: approximately 20% | reduction in total gas production [1]: approximately 25% | risk to the environment [2]: not a risk to the environment | rumen region of greatest inhibition [3]: maximum inhibitory effect in the PV region | rate of methane production in rumen regions ([3]; natural fermentation without added substrate): lower the rate of methane production | emission of methane gas from faeces (pig faeces): completely inhibited | reduction in methane compared with controls (cow rumen fluid): 83.6% | reduction in total volume compared with controls (cow rumen fluid): 56.8% | fermentation of MeOH by methanogens (methanogens): strongly inhibits | emitted methane in exhalant breath (sheep; ewes drenched with tincture plus water, versus control sheep): significant reduction | ill effects after dosing (sheep; ewes, drench): did not show any ill effects | percentage decrease in methane production compared to control sheep (sheep; rams, drench, day 2): 71% | amount of emitted gasses, carbon dioxide and methane (sheep; treated versus control sheep): marked lessening
